Results: patent publication US10023836B2, “Medium for yeasts” (YAMAGUCHI UNIVERSITY, priority 2012, dated 2018)

What was measured:
RAK3599 strain [1] = assay: Investigation with AID and aY-AID culture medium (FIGS. 29 to 39); type: cell-based, Saccharomyces cerevisiae; settings: for effect on proliferation when added at high concentrations: up to 1% or up to 0.2500%; for preferred concentration / content: AID or aY-AID culture medium
Experimental: As shown in the following, an investigation was conducted into concentrations of each amino acid and a substitution potential of pantothenic acid for the amino acid in the AID culture medium. A suitable YPD culture medium was used as a control.
Next, the amino acids asparagine, isoleucine, phenylalanine, and valine were each adjusted to a culture medium additive concentration of […], 0.0312%, 0.0625%, 0.1250%, and 0.2500%, and OD600 was measured after 24 hours.
Isoleucine concentration in the aY-AID culture medium was adjusted to 0, 0.01 mg/mL, 0.1 mg/mL, 0.5 mg/mL, and 1 mg/mL, respectively, and proliferation of the RAK3599 strain was investigated.
Phenylalanine concentration in the aY-AID culture medium was adjusted to 0, 0.01, 0.1, 0.5, and 1 mg/mL, respectively, and proliferation of the RAK3599 strain was investigated.
Valine concentration in the aY-AID culture medium was adjusted to 0, 0.01, 0.1, 0.5, and 1 mg/mL, respectively, and proliferation of the RAK3599 strain was investigated.
Serine concentration in the AID culture medium was adjusted to 0, 0.01 mg/mL, 0.1 mg/mL, 0.5 mg/mL, and 1 mg/mL, respectively, and proliferation of the RAK3599 strain was investigated.
Threonine concentration in the AID culture medium was adjusted to 0, 0.01, 0.1, 0.5, and 1 mg/mL, respectively, and proliferation of the RAK3599 strain was investigated.
Asparagine concentration in the AID culture medium was adjusted to 0, 0.01, 0.1, 0.5, and 1 mg/mL, respectively, and proliferation of the RAK3599 strain was investigated.
An investigation was conducted into vitamins contained in the AID culture medium. […]

RAK2683 yeast strain = assay: Investigation of nitrogen source used singly in MM culture medium instead of ammonium sulfate (Table 4); type: cell-based, Saccharomyces cerevisiae; settings: Table 4 conditions
[2] = tested on: Saccharomyces cerevisiae RAK3599 strain; assay: SynAA culture medium: elimination of single components and inorganic ion concentration; type: cell-based; settings: for essentiality for increasing proliferation: one component of the vitamin mix eliminated from SynAA culture medium
Experimental: (§1) In a case where no special provisions are made, a procedure for a cultivation experiment using the culture medium to be investigated for proliferation was such that a yeast undergoing investigation was pre-cultured in a YPD liquid culture medium at 28° C. for 24 hours, after which the yeast was adjusted such that OD600=20. […] In addition, OD600 was measured every 15 minutes by a spectrophotometer (Cell density meter co8000, WPA). Hereafter, data is represented by graphs for a case using the automatic spectrophotometer; however, these graphs are primarily used to compare the slope of logarithmic growth phase proliferation curves for each culture medium, and because OD600 is measured without dilution, values where OD600=3 to 3.5 or more may be incorrect.
Culture mediums were prepared in which one component each of the components configuring the inorganic ion mix was eliminated from the SynAA culture medium, and OD600 was measured. […] Thereafter, an investigation specifically of inorganic ion concentration was conducted. […] An investigation was conducted using RAK3599 strain (hereafter, simply referred to as “RAK3599 strain”), which is a strain of Saccharomyces cerevisiae not having a particular nutritional requirement. Where no subsequent special provisions were made, proliferation was investigated by performing roller tube culture for an appropriate amount of time at 28° C. and measuring OD600.
MgSO4 concentration in the SynAA culture mediums was adjusted to 0%, 0.0001%, 0.001%, 0.01%, 0.1%, and 1%, respectively, and proliferation of the RAK3599 strain was investigated. […] Next, MgCl2 concentration in the SynAA culture mediums was adjusted to 0.001%, 0.01%, 0.1%, and 1%, respectively, and proliferation of the RAK3599 strain was investigated.
A culture medium was prepared in which one component each of the components configuring the vitamin mix was eliminated from the SynAA culture medium, with the SynAA culture medium as the control, and proliferation of the RAK3599 strain was investigated.

RAK3599 strain [3] = assay: Vitamin and FeCl3 concentration in AKD′ culture medium (FIGS. 22 to 28); type: cell-based, Saccharomyces cerevisiae
Experimental: as §1
Pyridoxine concentration in the AKD′ culture medium was adjusted to 0, 0.004, 0.04, 0.4, 4, and 40 μg/mL, respectively, and proliferation of the RAK3599 strain was investigated.
Pantothenic acid concentration in the AKD′ culture medium was adjusted to 0, 0.004, 0.04, 0.4, 4, and 40 μg/mL, respectively, and proliferation of the RAK3599 strain was investigated.
Thiamine concentration in the AKD′ culture medium was adjusted to 0, 0.004, 0.04, 0.4, 4, and 40 μg/mL, respectively, and proliferation of the RAK3599 strain was investigated.
Nicotinic acid concentration in the AKD′ culture medium was adjusted to 0, 0.004, 0.04, 0.4, 4, and 40 μg/mL, respectively, and proliferation of the RAK3599 strain was investigated.
Myo-inositol concentration in the AKD′ culture medium was adjusted to 0, 0.02 μg/mL, 0.2 μg/mL, 2 μg/mL, 20 μg/mL, and 200 μg/mL, respectively, and proliferation of the RAK 3599 strain was investigated.
FeCl3 concentration in the AKD′ culture medium was adjusted to 0, 0.002, 0.02, 0.2, 2, and 20 μg/mL, respectively, and proliferation of the RAK3599 strain was investigated.

[4] = aY-AID culture medium, concentration of the substance 0
[5] = aY-AID culture medium, concentration of the substance 0.01 mg/mL
[6] = aY-AID culture medium, concentration of the substance 0.1 mg/mL
[7] = aY-AID culture medium, concentration of the substance 0.5 mg/mL
[8] = aY-AID culture medium, concentration of the substance 1 mg/mL

## CC[C@H](C)[C@H](N)C(=O)O [Isoleucine, L-Isoleucine]
RAK3599 strain [1]; AID culture medium
  effect on proliferation when added at high concentrations: a positive influence was imparted to proliferation
RAK3599 strain [1]
  preferred concentration / content: around 1 g/L
RAK3599 strain [1]; [4]
  OD600 after 24 hours: 16
RAK3599 strain [1]; [5]
  OD600 after 24 hours: 17
RAK3599 strain [1]; [6]
  OD600 after 24 hours: 16
RAK3599 strain [1]; [7]
  OD600 after 24 hours: 17
RAK3599 strain [1]; [8]
  OD600 after 24 hours: 19

## NCCC(=O)O [β-alanine]
RAK3599 strain [1]; AID culture medium (FIG. 39A)
  substitution potential of pantothenic acid: confirmed to be substituted with pantothenic acid
RAK3599 strain [1]; AID culture medium (FIG. 39B)
  concentration capable of substitution with pantothenic acid: ≥ 0.4 µg/mL

## NC(=O)C[C@H](N)C(=O)O.O [Asparagine, L-Asparagine monohydrate]
RAK3599 strain [1]; AID culture medium, asparagine 0 mg/mL
  OD600 after 24 hours: 15
RAK3599 strain [1]; AID culture medium, asparagine 0.01 mg/mL
  OD600 after 24 hours: 16
RAK3599 strain [1]; AID culture medium, asparagine 0.1 mg/mL
  OD600 after 24 hours: 16
RAK3599 strain [1]; AID culture medium, asparagine 0.5 mg/mL
  OD600 after 24 hours: 17
RAK3599 strain [1]; AID culture medium, asparagine 1 mg/mL
  OD600 after 24 hours: 16
RAK3599 strain [1]; AID culture medium
  effect on proliferation when added at high concentrations: proliferation was confirmed to be inhibited
RAK3599 strain [1]
  preferred concentration / content: around 0.5 g/L

## CC(=O)N[C@@H](Cc1ccc(O)cc1)C(=O)O [acetyl tyrosine, N-acetyl tyrosine]
RAK3599 strain [1]; AID culture medium, acetyl tyrosine 0 mg/mL
  OD600 after 24 hours: 13
RAK3599 strain [1]; AID culture medium, acetyl tyrosine 0.01 mg/mL
  OD600 after 24 hours: 14
RAK3599 strain [1]; AID culture medium, acetyl tyrosine 0.1 mg/mL
  OD600 after 24 hours: 15
RAK3599 strain [1]; AID culture medium, acetyl tyrosine 0.5 mg/mL
  OD600 after 24 hours: 14
RAK3599 strain [1]; AID culture medium, acetyl tyrosine 1 mg/mL
  OD600 after 24 hours: 15
RAK3599 strain [1]; AID culture medium, acetyl tyrosine 2 mg/mL
  OD600 after 24 hours: 18
RAK3599 strain [1]
  preferred concentration / content: about 1 g/L

## N[C@@H](CCC(=O)[O-])C(=O)[O-].O.[Na+].[Na+] [Glutamic acid, L-Glutamic acid sodium salt hydrate]
RAK2683 yeast strain
  proliferation when added singly as nitrogen source: favorable proliferation

## CC(C)[C@H](N)C(=O)O [Valine, L-VALINE]
RAK3599 strain [1]; AID culture medium
  effect on proliferation when added at high concentrations: a positive influence was imparted to proliferation
RAK3599 strain [1]
  preferred concentration / content: around 1 g/L
RAK3599 strain [1]; [4]
  OD600 after 24 hours: 16
RAK3599 strain [1]; [5]
  OD600 after 24 hours: 15
RAK3599 strain [1]; [6]
  OD600 after 24 hours: 15
RAK3599 strain [1]; [7]
  OD600 after 24 hours: 16
RAK3599 strain [1]; [8]
  OD600 after 24 hours: 16

## OB(O)O [boric acid]
[2]
  essentiality for increasing proliferation: not be essential components

## O[C@H]1[C@H](O)[C@@H](O)[C@H](O)[C@@H](O)[C@H]1O [inositol, myo-inositol]
RAK3599 strain [3]; AKD′ culture medium, myo-inositol 0 to 200 μg/mL
  proliferation versus inositol content: Proliferation increased in proportion to an increase in inositol content
RAK3599 strain [3]; inositol added at 10%
  proliferation compared with AKD′: below that of AKD′

## CC(C)(CO)[C@@H](O)C(=O)NCCC(=O)O [pantothenic acid]
[2]
  essentiality for increasing proliferation: essential components
RAK3599 strain [3]; AKD′ culture medium
  concentration at which proliferation was inhibited: 40 µg/mL
  preferred concentration: around 4000 μg/L
RAK3599 strain [3]; AKD′ culture medium without the substance
  proliferation at a content of 0: no proliferation whatsoever

## O=P([O-])(O)O.[K+] [KH2PO4, potassium dihydrogen phosphate]
[2]
  proliferation when the component is not added: extremely low proliferation
